Patent publication US20250120425A1, “Combinations of Ketogenic Supplements for Rapid and Sustained Blood Ketone Levels in Dieters and Patients” (priority 2021, published 2025)
Values belong to the molecule of their own block, whether it stands above or below them.

Key:
[1] = Blood βHB levels after single oral administration of ketogenic compounds in human subjects
Description: Table 1 is data depicting blood BHB levels of 4 male subjects with an average weight of 76 kg in a fasted state that received 5.5 grams of buffered (D) βHB together with 4.5 grams of (D)-1,3BD, 328 mg of Na+ in the form of NaHCO3 and 500 mg of K+ in the form of KHCO3, at 15, 30, 45 and 60 minutes after oral administration. […] That compound is an ester formed by reacting (D)-3-hydroxybutyrate and (D)-1,3-butanediol.
Table 2 is data depicting blood βHB levels after a single administration of 5.5 grams of buffered (D) βHB together with 4.5 grams of (D)-1,3BD, 328 mg of Na+ in the form of NaHCO3 and 500 mg of K+ in the form of KHCO3 in a fasted 70 kg subject who was following a strict ketogenic diet and keto adapted due at 15, 30, 45 and 60 minutes after oral administration.
Table 3 is data depicting blood BHB after a single administration of 10 grams of buffered (D) βHB acid with 328 mg of Na+ in the form of NaHCO3 and 500 mg of K+ in the form of KHCO3 in a fasted 75 kg subject and two fasted 65 kg female subjects at 15, 30, 45, 60 and 90 minutes after administration.
FIG. […] The total dose of 60 grams was administered 3 hours after a meal. […] Those esters are typically administered after an overnight fast on an empty stomach. […] FIG. 5 also includes blood samples for 2 esters of (D)-BHB. The first was from HVMN and consisted of […] of ester (2 commercially available 30 gram bottles). The second was the ester KE4 from KetoneAid and contained 60 net grams (2 commercially available 30 gram bottles). The choice of 60 grams of active ester was based on dosing protocols for elite athletes in the paper “Nutritional Ketosis Alters Fuel Preference and Thereby Endurance in Elite Athletes” Cell Metabolism Cox et al. 2016.

[2] = human, in vivo; cited from earlier work

effectiveness at raising blood levels of (D)-βHB, pure (D) form versus racemic ([1]; human, in vivo): more than twice as effective
Compound: C[C@@H](O)CC(=O)O [10 g HB, (D)-beta-hydroxybutyrate]

Compound: C[C@@H](O)CCOC(=O)C[C@@H](C)O [(D)-3-hydroxybutyl-(D)-3-hydroxybutyrate]
average serum increase for βHB [2]: 1.0 mmol/10 grams

Compound: CC(O)CCO (stereo not shown) [(D)-1,3BD, (D)-1,3-butanediol]
serum level of (D)-beta-hydroxybutyrate reached ([1]; 10 grams, 75 kg person): 0.9 mmol
effectiveness at raising serum levels of (D)-beta-hydroxybutyrate ([1]; (D) enantiomer compared with the racemic form): ~3 times
mean blood BHB level ([1]; Table 4: 10 grams single administration, 72 kg fasted subject, T + 0): 0.0
mean blood BHB level ([1]; Table 4: 10 grams, 72 kg fasted male, +15 Min): 0.6
mean blood BHB level ([1]; Table 4: 10 grams, 72 kg fasted male, +30 Min): 0.9
mean blood BHB level ([1]; Table 4: 10 grams, 72 kg fasted male, +45 Min): 0.9
mean blood BHB level ([1]; Table 4: 10 grams, 72 kg fasted male, +60 Min): 0.5
mean blood BHB level ([1]; Table 4: 10 grams, 72 kg fasted male, +90 Min): 0.3
effectiveness at raising blood levels of (D)-βHB, pure (D) form versus racemic ([1]; for any given weight): more than twice as effective
ketogenic power compared with the free acid (D)-βHB ([1]; gram to gram basis): the liver. On a gram to gram basis, it is a more powerful
ketogenic power relative to the ketone ester ([1]; gram to gram basis): ~90% as powerful as the previously mentioned ketone ester
